Assay results: patent publication US7871996B2, “Methods of inhibiting nitric oxide synthase using corrin derivatives” (The United States of America as represented by the …, priority 2006, dated 2011)
Structures can show the parent of a compound that is named as a salt.

What was measured:
NOS2 (iNOS) = target: T1, NOS2 (iNOS) (Homo sapiens, UniProt P35228); test: NOS2 enzymatic activity: conversion of 14-C-L-arginine to L-citrulline; assay type: biochemical
T1 construct: made in house
Procedure: (§1) The enzymatic activity of purified NOS1, NOS2, or NOS3 to convert radiolabeled L-arginine to L-citrulline was assessed in presence or absence of different concentrations of (A) hydroxocobalamin, (B) cobinamide, (C) dicyanocobinamide, or (D) cyanocobalamin. Results are expressed as percent inhibition.
(§2) The effect of methylcobalamin (not exposed to light or exposed to light) on nNOS is shown in FIG. 3A; its effect on iNOS is shown in FIG. 3B. The effect of adenosylcobalamin (not exposed to light or exposed to light) on nNOS is shown in FIG. 3C; its effect on iNOS is shown in FIG. 3D. The agents were protected from light or exposed to light for 60 minutes. The enzyme assays were done in near-dark conditions (as low light as possible). Light removes the methyl- or adenosyl-group from the agent resulting in hydroxocobalamin.
(§3) Briefly, cells were treated with 500 units/ml of murine interferon-gamma for 24 hours, incubated with 10 uM DAF-FM for 30 minutes, and washed. Then the cells were then assessed for fluorescence in a platereader fluorimeter. The degree of NO formation is proportional to the degree of fluorescence of DfAF-FM. To determine NOS activity, we incubated 14-C-labeled-L-arginine was at 37° C. with 5 nM recombinant NOS1, NOS2 or NOS3 with HEPES buffer, dithiothreitol, tetrahydrobiopterin, FAD, and NADPH in the absence or presence of different concentrations of the compound in question for 60 minutes (27, 28). The reaction was stopped by adding excess L-citrulline, after which 14-C-labeled L-arginine was separated from 14-C-labeled citrulline using a Dowex-50 column (with the 14-C-labeled L-arginine being bound to the Dowex-50, and 14-C-labeled citrulline eluting free from the column). Radioactivity was determined with a scintillation counter, and percentage NOS inhibition was calculated. We determined that none of the compounds quenched detection of the radioactivity. Spectroscopy was determined using a Hitachi U2010 spectrometer (San Jose, Calif.) as noted before (17, 24, 25).

NOS1 (nNOS) = target: T2, NOS1 (nNOS) (Homo sapiens, UniProt P29475); test: NOS1 enzymatic activity: conversion of 14-C-L-arginine to L-citrulline; assay type: biochemical
T2 construct: made in house
Procedure: as §1, §2, §3

[1] = stated as known; cited from earlier work
[2] = UV/Vis spectroscopy of reaction of agent with NO; assay type: binding
Procedure: NO reacts with OH-Cbl as indicated by the change in the UV/Vis spectrum (shift of peak from 352 nm to 354-355 nm, and alteration in the 520 nm region).
as §3, with “25). […]” for “25).”

[3] = target: T3, purified, recombinant NOS2 (Homo sapiens, UniProt P35228); test: UV/Vis spectroscopy of CO binding to reduced NOS2 heme; conditions: reduced conditions (dithionite), CO as oxygen mimic
T3 construct: made in house
From the text: Oxygen reacts directly with the reduced iron of the heme group in NOS. Carbon monoxide (CO) (that simulates O2 in binding to the reduced iron) was used to determine the influence of CN2-Cbi on oxygen binding to NOS. The reaction of purified NOS2 with CO in a reduced state (dithionite) markedly changed the UV/Vis spectrum, with appearance of the typical CO-bound Fe^+2-heme peak at 445 nm (FIG. 4A). However, in the presence of CN2-Cbi, there was no appearance of the 445 nm peak induced by CO in a reduced state (FIG. 4B).
Briefly, cells were treated with 500 units/ml of murine interferon-gamma for 24 hours, incubated with 10 uM DAF-FM for 30 minutes, and washed. Then the cells were then assessed for fluorescence in a platereader fluorimeter. The degree of NO formation is proportional to the degree of fluorescence of DfAF-FM. […] Radioactivity was determined with a scintillation counter, and percentage NOS inhibition was calculated. We determined that none of the compounds quenched detection of the radioactivity. Spectroscopy was determined using a Hitachi U2010 spectrometer (San Jose, Calif.) as noted before (17, 24, 25). […]

Raw 264 cells = test: NO formation by activated Raw 264 mouse macrophage cells (DAF-FM fluorescence); assay type: cell-based; conditions: interferon-gamma, 24 hours, 0, 0.5, 2.0, or 8.0 uM
Procedure: (§4) Cells of the mouse macrophage cell line J774 were incubated 3 days with 10 ng/ml endotoxin and 100 units/ml murine interferon gamma to activate the macrophage-like cells for NO production. The cultures also contained 0 to 62.5 uM dicyanocobinamide for the 3 days. At the end of the culture period, supernatant cell NO production was determined. […] Cells of the mouse macrophage cell line Raw 264 were incubated 24 hours with 100 units/ml murine interferon gamma to activate the macrophage-like cells for NO production. The cultures also contained 0, 0.5, 2.0, or 8.0 uM dicyanocobinamide for the entire culture period. At the end of the culture period the cells were assessed for NO production using DAF-MN and a fluorimeter. Results are expressed as percent inhibition. The error bars show the SEM.
We prepared highly purified, recombinant NOS1 and NOS2 (24,25). […] NO levels were measured using a “Nitric Oxide Analyzer” (Sievers, Boulder, Colo.) or using diaminofluorescein-FM (4-amino-5-methylamino-2′,7′-difluorofluorescein) from Invitrogen-Molecular Probes.
Briefly, cells were treated with 500 units/ml of murine interferon-gamma for 24 hours, incubated with 10 uM DAF-FM for 30 minutes, and washed. Then the cells were then assessed for fluorescence in a platereader fluorimeter. The degree of NO formation is proportional to the degree of fluorescence of DfAF-FM. […]

J774 cells = test: NO formation by activated J774 mouse macrophage cells; assay type: cell-based; conditions: interferon-gamma and endotoxin, 3 days, 0 to 62.5 uM
Procedure: as §4
We prepared highly purified, recombinant NOS1 and NOS2 (24,25). Recombinant bovine NOS3 was purchased from Cayman (Ann Arbor, Mich.). Tetrahydrobiopterin and carboxy-PTIO {2-(4-Carboxyphenyl)-4,4,5,5-tetramethylimidazoline-1-oxyl-3-oxide (potassium salt)} were from Alexis (San Diego, Calif.). 14-C-labeled L-arginine and 14-C-labeled citrulline were from Amersham/GE Healthcare (Waukesha, Wis.). […] NO levels were measured using a “Nitric Oxide Analyzer” (Sievers, Boulder, Colo.) or using diaminofluorescein-FM (4-amino-5-methylamino-2′,7′-difluorofluorescein) from Invitrogen-Molecular Probes.

[4] = after light illumination of the agent

T3 sequence (P35228 whole entry): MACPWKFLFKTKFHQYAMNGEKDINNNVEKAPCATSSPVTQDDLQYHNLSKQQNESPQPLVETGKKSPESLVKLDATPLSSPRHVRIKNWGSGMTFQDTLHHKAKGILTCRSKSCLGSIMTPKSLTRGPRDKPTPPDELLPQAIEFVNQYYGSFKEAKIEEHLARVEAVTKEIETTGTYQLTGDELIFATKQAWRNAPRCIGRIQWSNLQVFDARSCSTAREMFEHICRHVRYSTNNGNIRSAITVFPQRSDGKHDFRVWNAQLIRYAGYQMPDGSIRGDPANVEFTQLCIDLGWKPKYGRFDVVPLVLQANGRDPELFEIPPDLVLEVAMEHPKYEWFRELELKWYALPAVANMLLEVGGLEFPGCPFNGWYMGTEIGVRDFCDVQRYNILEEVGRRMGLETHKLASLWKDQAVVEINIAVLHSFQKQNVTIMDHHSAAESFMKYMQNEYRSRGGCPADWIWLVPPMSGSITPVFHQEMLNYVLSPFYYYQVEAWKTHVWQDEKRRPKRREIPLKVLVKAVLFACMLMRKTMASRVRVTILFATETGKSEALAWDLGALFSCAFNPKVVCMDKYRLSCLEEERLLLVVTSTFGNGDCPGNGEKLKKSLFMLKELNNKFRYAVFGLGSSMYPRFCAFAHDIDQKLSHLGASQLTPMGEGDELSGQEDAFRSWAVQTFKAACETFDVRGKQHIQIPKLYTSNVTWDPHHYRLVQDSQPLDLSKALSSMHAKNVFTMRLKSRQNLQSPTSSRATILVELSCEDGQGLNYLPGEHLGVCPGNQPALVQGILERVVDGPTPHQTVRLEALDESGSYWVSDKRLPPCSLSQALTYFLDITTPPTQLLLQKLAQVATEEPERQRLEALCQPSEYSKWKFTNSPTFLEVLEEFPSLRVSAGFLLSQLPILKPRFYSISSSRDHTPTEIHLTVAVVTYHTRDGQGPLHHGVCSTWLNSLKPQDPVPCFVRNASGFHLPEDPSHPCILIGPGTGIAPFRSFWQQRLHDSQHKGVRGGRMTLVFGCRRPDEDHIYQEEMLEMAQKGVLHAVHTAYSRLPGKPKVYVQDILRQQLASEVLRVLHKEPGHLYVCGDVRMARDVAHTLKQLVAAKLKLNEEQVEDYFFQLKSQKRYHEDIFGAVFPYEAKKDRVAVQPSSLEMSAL

Molecule: C/C1=C2/[N-][C@H]([C@H](CC(N)=O)[C@@]2(C)CCC(=O)NC[C@@H](C)OP(=O)([O-])O[C@H]2[C@@H](O)[C@@H](n3cnc4cc(C)c(C)cc43)O[C@@H]2CO)[C@]2(C)N=C(/C(C)=C3N=C(/C=C4N=C1[C@@H](CCC(N)=O)C\4(C)C)[C@@H](CCC(N)=O)[C@]\3(C)CC(N)=O)[C@@H](CCC(N)=O)[C@]2(C)CC(N)=O.[CH2-][C@H]1O[C@@H](n2cnc3c(N)ncnc32)[C@H](O)[C@@H]1O.[Co] [Adenosylcobalamin]
- NOS2 inhibition (in words) (NOS2 (iNOS); [4]): inhibitory activity (comparable to native OH-Cbl)
- NOS2 inhibition (in words) (NOS2 (iNOS); agent not exposed to light): very little ability to inhibit NOS activity
- NOS1 inhibition (in words) (NOS1 (nNOS); [4]): inhibitory activity (comparable to native OH-Cbl)
- NOS1 inhibition (in words) (NOS1 (nNOS); agent not exposed to light): very little ability to inhibit NOS activity

Molecule: C/C1=C2/[N-][C@H]([C@H](CC(N)=O)[C@@]2(C)CCC(=O)NC[C@@H](C)OP(=O)([O-])O[C@H]2[C@@H](O)[C@@H](n3cnc4cc(C)c(C)cc43)O[C@@H]2CO)[C@]2(C)N=C(/C(C)=C3N=C(/C=C4N=C1[C@@H](CCC(N)=O)C\4(C)C)[C@@H](CCC(N)=O)[C@]\3(C)CC(N)=O)[C@@H](CCC(N)=O)[C@]2(C)CC(N)=O.[Co+3].[OH-] [Hydroxocobalamin]
- NOS2 inhibition (in words) (NOS2 (iNOS); purified recombinant NOS2): potent
- ability to bind and scavenge NO [1]: able to bind and scavenge NO
- reaction with NO (change in UV/visible spectrum) [2]: reacted
- NOS1 inhibition (in words) (NOS1 (nNOS); purified recombinant NOS1): potent

Molecule: C/C1=C2/[N-][C@H]([C@H](CC(N)=O)[C@@]2(C)CCC(=O)NC[C@@H](C)O)[C@]2(C)N=C(/C(C)=C3N=C(/C=C4N=C1[C@@H](CCC(N)=O)C\4(C)C)[C@@H](CCC(N)=O)[C@]\3(C)CC(N)=O)[C@@H](CCC(N)=O)[C@]2(C)CC(N)=O.[Co+3] [Cobinamide]
- NOS2 inhibition (in words) (NOS2 (iNOS); purified recombinant NOS2): potent
- ability to bind and scavenge NO [1]: able to bind and scavenge NO
- NOS1 inhibition (in words) (NOS1 (nNOS); purified recombinant NOS1): potent

Molecule: C/C1=C2/[N-]C([C@H](CC(N)=O)[C@@]2(C)CCC(=O)NCC(C)O)[C@]2(C)N=C(/C(C)=C3N=C(/C=C4N=C1[C@@H](CCC(N)=O)C\4(C)C)[C@@H](CCC(N)=O)[C@]\3(C)CC(N)=O)[C@@H](CCC(N)=O)[C@]2(C)CC(N)=O.[C-]#N.[C-]#N.[Co] (stereo partly drawn) [Dicyanocobinamide]
- NOS2 inhibition (in words) (NOS2 (iNOS); purified recombinant NOS2): potent
- CO-induced spectral changes in NOS2 (445 nm peak) [3]: markedly diminished
- reaction with NO (change in UV/visible spectrum) [2]: did not react
- inhibition of NO production (Raw 264 cells): dose-dependent inhibition
- NOS1 inhibition (in words) (NOS1 (nNOS); purified recombinant NOS1): potent
- inhibition of NO production (J774 cells): dose-dependent inhibition

Molecule: C/C1=C2/[N-][C@H]([C@H](CC(N)=O)[C@@]2(C)CCC(=O)NC[C@H](C)OP(=O)([O-])O[C@H]2[C@@H](O)[C@@H](n3cnc4cc(C)c(C)cc43)O[C@@H]2CO)[C@]2(C)N=C(/C(C)=C3N=C(/C=C4N=C1[C@@H](CCC(N)=O)C\4(C)C)[C@@H](CCC(N)=O)[C@]\3(C)CC(N)=O)[C@@H](CCC(N)=O)[C@]2(C)CC(N)=O.[CH3-].[Co+3] [Methylcobalamin]
- NOS2 inhibition (in words) (NOS2 (iNOS); [4]): inhibitory activity (comparable to native OH-Cbl)
- NOS2 inhibition (in words) (NOS2 (iNOS); agent not exposed to light): very little ability to inhibit NOS activity
- NOS1 inhibition (in words) (NOS1 (nNOS); [4]): inhibitory activity (comparable to native OH-Cbl)
- NOS1 inhibition (in words) (NOS1 (nNOS); agent not exposed to light): very little ability to inhibit NOS activity

Molecule: Cyanocobalamin
- NOS2 inhibition (in words) (NOS2 (iNOS); purified recombinant NOS2): much less activity
- NOS1 inhibition (in words) (NOS1 (nNOS); purified recombinant NOS1): much less activity

Molecule: CC1(C)N([O])C(c2ccc(C(=O)O)cc2)=[N+]([O-])C1(C)C [Carboxy-PTIO, 2-(4-Carboxyphenyl)-4,4,5,5-tetramethylimidazoline-1-oxyl-3-oxide (potassium salt)]
- NOS2 inhibition (in words) (NOS2 (iNOS); purified recombinant NOS2): does not inhibit NOS
- EC50 (NOS2 (iNOS); purified recombinant NOS2, 5 nM, 60 minutes, 37° C., read-out: ED50 NOS2): 1360 µM
- NOS1 inhibition (in words) (NOS1 (nNOS); purified recombinant NOS1): does not inhibit NOS
- EC50 (NOS1 (nNOS); purified recombinant NOS1, 5 nM, 60 minutes, 37° C., read-out: ED50 NOS1): 1360 µM
